Among the data in PubChem BioAssay AID330 (DTP/NCI, 2004) are T/C values, retold here.

Several values for one entry are separate records, joined by “and”; a condition that tells them apart may be missing. Equal values may be shown once. Toxic doses and inconclusive results are not listed.

The assay deals with P388 leukemia ip, CD2F1 mice, survival T/C. The assay can be described thus: NCI In Vivo Anticancer Drug Screen. Data for tumor model P388 Leukemia (intraperitoneal) in CD2F1 (CDF1) mice. The conditions noted are these: endpoint: median survival time, higher = longer survival. In a few lines: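 Mice carrying the transplanted tumor received test compound or vehicle. Survival was recorded in each group, and the value is the treated-group measurement divided by that of the vehicle-treated control group.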

Setting [1] is: dose: 100.0 mg/kg/injection, schedule: Q04DX003 (ip), vehicle: Klucel (hydroxypropylcellulose) (HPC).
Setting [2] is: dose: 200.0 mg/kg/injection, schedule: Q04DX003 (ip), vehicle: Klucel (hydroxypropylcellulose) (HPC).
Where [3] appears, read: dose: 400.0 mg/kg/injection, schedule: Q04DX003 (ip), vehicle: Klucel (hydroxypropylcellulose) (HPC).
The mark [4] stands for this setting: dose: 100.0 mg/kg/injection, schedule: Q01DX009 (ip), vehicle: saline with Tween-80.
[5] abbreviates: dose: 200.0 mg/kg/injection, schedule: Q01DX009 (ip), vehicle: saline with Tween-80.
[6] abbreviates: dose: 400.0 mg/kg/injection, schedule: Q01DX009 (ip), vehicle: saline with Tween-80.
[7] abbreviates: dose: 15.0 mg/kg/injection, schedule: Q01DX005 (ip), vehicle: saline with Tween-80.
Where [8] appears, read: dose: 60.0 mg/kg/injection, schedule: Q01DX005 (ip), vehicle: saline with Tween-80.
Setting [9] is: dose: 100.0 mg/kg/injection, schedule: Q01DX005 (ip), vehicle: saline with Tween-80.
Where [10] appears, read: dose: 200.0 mg/kg/injection, schedule: Q01DX005 (ip), vehicle: saline with Tween-80.
Setting [11] is: dose: 100.0 mg/kg/injection, schedule: Q04DX003 (ip), vehicle: saline with Tween-80.
Where [12] appears, read: dose: 200.0 mg/kg/injection, schedule: Q04DX003 (ip), vehicle: saline with Tween-80.
Setting [13] is: dose: 400.0 mg/kg/injection, schedule: Q04DX003 (ip), vehicle: saline with Tween-80.
[14] abbreviates: dose: 2.5 mg/kg/injection, schedule: Q01DX009 (ip), vehicle: saline with Tween-80.
[15] abbreviates: dose: 5.0 mg/kg/injection, schedule: Q01DX009 (ip), vehicle: saline with Tween-80.
The mark [16] stands for this setting: dose: 50.0 mg/kg/injection, schedule: Q01DX005 (ip), vehicle: saline with Tween-80.

On to `CCCCN(CCCC)c1cc(=O)nc2ccccn12`, for which the T/C is, setting by setting: (dose: 60.0 mg/kg/injection, schedule: Q01DX005 (ip), vehicle: saline) 101 % of control; (dose: 120.0 mg/kg/injection, schedule: Q01DX005 (ip), vehicle: saline) 101 % of control; (dose: 240.0 mg/kg/injection, schedule: Q01DX005 (ip), vehicle: saline) 100 % of control.

As for `CCCCCCCC[N+](C)(C)Cc1ccc(Oc2ccc(C[N+](C)(C)CCCCCCCC)cc2)cc1`, the T/C (dose: 6.25 mg/kg/injection, schedule: Q04DX003 (ip), vehicle: saline) was 108 % of control; the T/C (dose: 12.5 mg/kg/injection, schedule: Q04DX003 (ip), vehicle: saline) is 110 % of control; the T/C (dose: 25.0 mg/kg/injection, schedule: Q04DX003 (ip), vehicle: saline) was 110 % of control.

As to `BrCC(Br)=C(Br)Br`, the T/C was 104 % of control (dose: 3.12 mg/kg/injection, schedule: Q01DX009 (ip), vehicle: saline with Tween-80); 106 % of control (dose: 6.25 mg/kg/injection, schedule: Q01DX009 (ip), vehicle: saline with Tween-80); 98 % of control (dose: 12.5 mg/kg/injection, schedule: Q01DX009 (ip), vehicle: saline with Tween-80).

In the case of `Cc1cccc(C)c1N=O`, the T/C was 122 % of control and 124 % of control (dose: 50.0 mg/kg/injection, schedule: Q01DX009 (ip), vehicle: Klucel (hydroxypropylcellulose) (HPC)); 87 % of control (dose: 200.0 mg/kg/injection, schedule: Q01DX009 (ip), vehicle: Klucel (hydroxypropylcellulose) (HPC)).

Regarding `CC(=O)NS(=O)(=O)c1ccc(C)cc1`, the T/C under setting [1] was 106 % of control, the T/C under setting [2] is 107 % of control and the T/C under setting [3] is 100 % of control.

Consider `CC(C)OC(=O)NN(C(=O)OC(C)C)N(C)C`, for which the T/C by setting is: (dose: 60.0 mg/kg/injection, schedule: Q01DX005 (ip), vehicle: Klucel (hydroxypropylcellulose) (HPC)) 100 % of control; (dose: 120.0 mg/kg/injection, schedule: Q01DX005 (ip), vehicle: Klucel (hydroxypropylcellulose) (HPC)) 100 % of control; (dose: 240.0 mg/kg/injection, schedule: Q01DX005 (ip), vehicle: Klucel (hydroxypropylcellulose) (HPC)) 103 % of control.

Regarding `O=C1COCC(=O)OCCOCCOCCO1`, the T/C under setting [1] is 100 % of control, the T/C under setting [2] was 100 % of control and the T/C under setting [3] was 100 % of control.

For `CC1CN(C)CCN1C` (stereo not drawn), the T/C under setting [4] is 100 % of control, the T/C under setting [5] is 100 % of control and the T/C under setting [6] is 95 % of control.

With `CCOC(=O)c1c(O)c(Cc2ccccc2)c(=O)n2c1[nH]c1cc(C)c(C)cc12`, the T/C is, setting by setting: (dose: 7.5 mg/kg/injection, schedule: Q01DX005 (ip), vehicle: saline with Tween-80) 100 % of control; under setting [7], 100 % of control.

Consider `CCc1ccc(-c2cc(-c3ccc(CC)cc3)cc(-c3ccc(CC)cc3)c2)cc1`, for which the T/C was 100 % of control under setting [8], 94 % of control under setting [9] and 91 % of control under setting [10].

For `O=C1C=C2CCC3=CC(=O)C(=CC3=O)CCC(=C1)C2=O`, the T/C was 97 % of control (dose: 100.0 mg/kg/injection, schedule: Q04DX002 (ip), vehicle: Klucel (hydroxypropylcellulose) (HPC)) and 97 % of control (dose: 200.0 mg/kg/injection, schedule: Q04DX002 (ip), vehicle: Klucel (hydroxypropylcellulose) (HPC)).

Consider `CCCCCn1c(Cl)c(/C=N\Nc2cccc([N+](=O)[O-])c2)c2ccccc21`, for which the T/C was 100 % of control under setting [11], 91 % of control under setting [12] and 90 % of control under setting [13].

As for `COc1ccc2c(Nc3ccc(NS(C)(=O)=O)cc3)c3ccccc3nc2c1`, the T/C is 99 % of control (dose: 0.07 mg/kg/injection, schedule: Q01DX009 (ip), vehicle: saline); 113 % of control (dose: 0.1 mg/kg/injection, schedule: Q01DX009 (ip), vehicle: saline); 116 % of control (dose: 0.15 mg/kg/injection, schedule: Q01DX009 (ip), vehicle: saline); 122 % of control (dose: 0.23 mg/kg/injection, schedule: Q01DX009 (ip), vehicle: saline); 119 % of control (dose: 1.1 mg/kg/injection, schedule: Q04DX003 (ip), vehicle: saline with Tween-80); 164 % of control under setting [14]. Further, the T/C runs as follows: under setting [15], 194 % of control; (dose: 9.38 mg/kg/injection, schedule: Q01DX009 (ip), vehicle: saline with Tween-80) 218 % of control; (dose: 10.0 mg/kg/injection, schedule: Q01DX009 (ip), vehicle: saline with Tween-80) 270 % of control; (dose: 13.2 mg/kg/injection, schedule: Q04DX003 (ip), vehicle: saline with Tween-80) 163 % of control; (dose: 18.7 mg/kg/injection, schedule: Q01DX009 (ip), vehicle: saline with Tween-80) 97 % of control; (dose: 20.0 mg/kg/injection, schedule: Q04DX003 (ip), vehicle: saline with Tween-80) 168 % of control. The T/C by setting is: (dose: 22.0 mg/kg/injection, schedule: Q04DX003 (ip), vehicle: saline with Tween-80) 175 % of control; (dose: 30.0 mg/kg/injection, schedule: Q04DX003 (ip), vehicle: saline with Tween-80) 200 % of control; (dose: 33.0 mg/kg/injection, schedule: Q04DX003 (ip), vehicle: saline with Tween-80) 204 % of control; (dose: 50.0 mg/kg/injection, schedule: Q04DX003 (ip), vehicle: saline with Tween-80) 216 % of control; (dose: 75.0 mg/kg/injection, schedule: Q04DX003 (ip), vehicle: saline with Tween-80) 237 % of control.

Consider `NNC(=S)Nc1ccccc1`, for which the T/C is 104 % of control (dose: 1.25 mg/kg/injection, schedule: Q01DX009 (ip), vehicle: saline with Tween-80); 100 % of control under setting [14]; 95 % of control under setting [15].

On to `BrC=C(Br)Br`, for which the T/C is 104 % of control under setting [16], 100 % of control under setting [9] and 95 % of control under setting [10].

For the compound `CCc1cc(CC)c(-c2ccco2)c(COC(=O)NC)c1`, the T/C by setting is: (dose: 50.0 mg/kg/injection, schedule: Q01DX009 (ip), vehicle: saline with Tween-80) 101 % of control; under setting [4], 101 % of control; under setting [5], 106 % of control.

In the case of `CC1(O)Cn2c(=O)c3cc4ccccc4cc3c(=O)n2CC1(C)Br` (stereo not drawn), the T/C (dose: 50.0 mg/kg/injection, schedule: Q04DX002 (ip), vehicle: DMSO) was 105 % of control; the T/C (dose: 100.0 mg/kg/injection, schedule: Q04DX002 (ip), vehicle: DMSO) is 101 % of control; the T/C (dose: 200.0 mg/kg/injection, schedule: Q04DX002 (ip), vehicle: DMSO) is 101 % of control.

For `Oc1c(Cl)c2nc3ccccc3nc2c2ccccc12`, the T/C runs as follows: under setting [7], 100 % of control; (dose: 30.0 mg/kg/injection, schedule: Q01DX005 (ip), vehicle: saline with Tween-80) 102 % of control; under setting [8], 88 % of control and 98 % of control.

As for `O=[N+]([O-])CC(c1ccccc1)C(C[N+](=O)[O-])c1ccccc1` (stereo not drawn), the T/C by setting is: (dose: 6.25 mg/kg/injection, schedule: Q01DX005 (ip), vehicle: saline with Tween-80) 100 % of control; (dose: 12.5 mg/kg/injection, schedule: Q01DX005 (ip), vehicle: saline with Tween-80) 87 % of control; (dose: 25.0 mg/kg/injection, schedule: Q01DX005 (ip), vehicle: saline with Tween-80) 95 % of control; under setting [16], 91 % of control; under setting [9], 91 % of control and 86 % of control.

On to `CC1CC(C)(C)N=C(CCC2CCCC2=O)O1` (stereo not drawn), for which the T/C runs as follows: under setting [4], 91 % of control; under setting [11], 95 % of control; under setting [5], 100 % of control; under setting [12], 100 % of control; under setting [6], 104 % of control; under setting [13], 104 % of control.

In the case of `Cc1nnc(SCC2=C(C(=O)O)N3C(=O)C(NC(=O)Cn4cnnn4)C3SC2)s1` (stereo not drawn), the T/C (dose: 25.0 mg/kg/injection, schedule: Q01DX009 (ip), vehicle: saline) was 112 % of control and the T/C (dose: 400.0 mg/kg/injection, schedule: Q01DX009 (ip), vehicle: saline) was 112 % of control.
